For orientation: Ki means a measure of affinity in units of concentration, obtained from inhibition or displacement. A high value points to lower affinity.

The target of one assay is T1, human CB1 receptors (Homo sapiens, UniProt P21554).
T1 construct: expressed in transfected cells; host or cells: CHO cells
As to the kind of experiment: Cannabinoid receptor [3H]CP-55,940 displacement binding assay, CB1. The following applies: 1 h; 10 µM compound; CHO cell membranes, 2.5 nM radioligand; read-out: Displacement of [3H]CP-55,940 from CB1. The protocol:
(§1) The affinities of the compounds for CB1 and CB2 receptors were examined using displacement assays, as previously described. Briefly, cell membranes from CHO cells expressing human CB1 or human CB2 receptors were isolated using differential centrifugation. Test compounds reconstituted in DMSO and were incubated with the isolated membrane in binding buffer (50 mM Tris-HCl, 1 mM EDTA, 3 mM MgCl2, 5 mg/mL BSA, pH 7.4) along with 2.5 nM [^3H]CP-55,940. Total binding was assessed in the presence of equal concentration of DMSO, while non-specific binding was determined in the presence of 10 μM CP-55,940, and background binding was determined in wells lacking membrane. Following incubation at 30 °C for 60 min, the binding reactions were terminated by vacuum filtration through Whatman GF/C filters. The filters were then washed twice with ice-cold buffer (50 mM Tris-HCl, 1 mg/mL BSA). Liquid scintillation cocktail was added to each well and the total tritiated counts per minute were analyzed using a TopCount scintillation counter. Background counts were subtracted from all wells and the percent displacement from total binding was calculated.
(§2) The compounds were initially screened at 10 μM concentrations. If they produced at least ±30% displacement of the radioligand, then full competition curves were constructed. Ki values were calculated using GraphPad Prism (San Diego, CA, USA) and Kd values determined using a 1 site fit. All assays were run in technical and biological replicates so that the n = 5–6.
(Displacement assays read how much labelled ligand stays bound in the presence of the test substance.)

A further assay deals with T2, human CB2 receptors (Homo sapiens, UniProt P34972).
T2 construct: expressed in transfected cells; host or cells: CHO cells
As to the kind of experiment: Cannabinoid receptor [3H]CP-55,940 displacement binding assay, CB2. The settings on record: for inhibition at 10 µM: 1 h, 10 µM compound, CHO cell membranes, 2.5 nM radioligand, read-out: Displacement of [3H]CP-55,940 from CB2; for displacement of [3H]CP-55,940 in the competitive radioligand screen: 10 µM, receptor (CB1 or CB2) not given. The protocol: as §1, §2

T1 sequence (P21554 whole entry): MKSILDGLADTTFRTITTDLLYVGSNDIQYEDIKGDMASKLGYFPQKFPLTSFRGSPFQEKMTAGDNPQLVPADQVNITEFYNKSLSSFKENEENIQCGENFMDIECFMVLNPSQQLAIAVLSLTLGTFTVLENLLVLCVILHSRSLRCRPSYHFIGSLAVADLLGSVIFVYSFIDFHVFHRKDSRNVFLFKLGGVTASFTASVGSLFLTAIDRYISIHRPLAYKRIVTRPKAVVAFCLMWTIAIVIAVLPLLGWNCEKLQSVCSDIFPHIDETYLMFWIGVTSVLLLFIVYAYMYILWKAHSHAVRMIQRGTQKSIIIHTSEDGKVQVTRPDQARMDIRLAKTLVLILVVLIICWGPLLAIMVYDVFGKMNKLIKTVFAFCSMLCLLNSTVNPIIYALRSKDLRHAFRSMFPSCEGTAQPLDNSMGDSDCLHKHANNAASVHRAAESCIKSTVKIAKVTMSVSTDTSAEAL
T2 sequence (P34972 whole entry): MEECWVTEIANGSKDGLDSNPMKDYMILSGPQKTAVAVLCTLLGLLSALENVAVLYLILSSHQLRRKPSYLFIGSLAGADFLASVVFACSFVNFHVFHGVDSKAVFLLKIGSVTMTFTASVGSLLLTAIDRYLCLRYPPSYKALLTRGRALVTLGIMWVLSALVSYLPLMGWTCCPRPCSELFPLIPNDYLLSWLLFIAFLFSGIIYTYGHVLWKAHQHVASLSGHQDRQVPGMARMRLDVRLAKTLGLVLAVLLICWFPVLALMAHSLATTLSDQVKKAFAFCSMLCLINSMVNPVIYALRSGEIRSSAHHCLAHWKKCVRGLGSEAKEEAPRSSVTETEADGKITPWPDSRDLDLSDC

For `O=C1c2ccccc2N/C(=N/N=C/c2ccc[nH]2)[C@@H]2CCCN12` [Compound 4a], the inhibition at 10 µM on human CB1 receptors is -3.09%; on human CB2 receptors, -12.5%.
Consider `Cn1ccnc1/C=N/N=C1/Nc2ccccc2C(=O)N2CCC[C@@H]12` [Compound 4b], for which the figures for the inhibition at 10 µM at human CB1 receptors and at human CB2 receptors were -14% and -14.5%, respectively.
The matching figures for `O=C1c2ccccc2N/C(=N/N=C/c2cncs2)[C@@H]2CCCN12` [Compound 4c, (S,E)-11-[(Thiazol-5-ylmethylene)hydrazono]-pyrrolo[2,1-c][1,4] Benzodiazepine]: 0.25% and 3.06%.
With `Cc1ncc(/C=N/N=C2/Nc3ccccc3C(=O)N3CCC[C@@H]23)s1` [Compound 4d], the values for the inhibition at 10 µM on human CB1 receptors and on human CB2 receptors were -28% and -33.6%, respectively.
Regarding `Cc1ncsc1/C=N/N=C1/Nc2ccccc2C(=O)N2CCC[C@@H]12` [Compound 4e], the inhibition at 10 µM on human CB1 receptors was 21.9%; on human CB2 receptors it was 19.9%.
In the same order, the values of `Nc1ncc(/C=N/N=C2/Nc3ccccc3C(=O)N3CCC[C@@H]23)s1` [Compound 4f] are 1.75% and 3.72%.
In the case of `O=C1c2ccccc2N/C(=N/N=C/c2sc(Cl)nc2Cl)[C@@H]2CCCN12` [Compound 4g], the inhibition at 10 µM on human CB1 receptors came out at 24.2%; on human CB2 receptors, 29.3%.
Turning to `O=C1c2ccccc2N/C(=N/N=C/c2cc3ccccc3s2)[C@@H]2CCCN12` [Compound 4h, (S,E)-11-[2-(Benzo[b]thiophenylmethylene)hydrazono]-pyrrolo[2,1-c][1,4] Benzodiazepine], the inhibition at 10 µM at human CB1 receptors was found to be 36.9%; on human CB2 receptors it was 61%. In addition, at human CB2 receptors, the “displacement of [3H]CP-55,940 in the competitive radioligand screen” value was “more than 60%”.
For `O=C1c2cc(Br)ccc2N/C(=N/N=C/c2cc3ccccc3s2)[C@@H]2CCCN12` [Compound 4i, (S,E)-11-[(Benzo[b]thiophen-2-ylmethylene)hydrazono]-7-bromo-pyrrolo[2,1-c][1,4] Benzodiazepine], the figures for the inhibition at 10 µM on human CB1 receptors and on human CB2 receptors were 49.8% and 36.4%, respectively.
Consider `O=C1c2cc(Br)ccc2N/C(=N/N=C/c2csc3ccccc23)[C@@H]2CCCN12` [Compound 4j], for which the figures for the inhibition at 10 µM at human CB1 receptors and on human CB2 receptors were 66.8% and 65.2%, respectively.
The matching figures for `Cc1c(/C=N/N=C2/Nc3ccccc3C(=O)N3CCC[C@@H]23)sc2ccccc12` [Compound 4l]: 77.2% and 51.7%.
The matching figures for `O=C1c2ccccc2N/C(=N/N=C/c2sc3ccccc3c2Cl)[C@@H]2CCCN12` [Compound 4m]: 5.22% and 50%.
The matching figures for `O=C1c2ccccc2N/C(=N/N=C/c2nc3ccccc3s2)[C@@H]2CCCN12` [Compound 4n, (S,E)-11-[(Benzo[d]thiazol-2-ylmethylene)hydrazono]-pyrrolo[2,1-c][1,4] Benzodiazepine]: 44.1% and 43.3%.
On to `Cn1cc(/C=N/N=C2/Nc3ccccc3C(=O)N3CCC[C@@H]23)c2ccccc21` [Compound 4o], for which the inhibition at 10 µM at human CB1 receptors was determined as 5.09%; at human CB2 receptors, 1.01%.
With `O=C1c2ccccc2N/C(=N/N=C/C23CC4CC(CC(C4)C2)C3)[C@@H]2CCCN12` [Compound 4q], the figures for the inhibition at 10 µM on human CB1 receptors and at human CB2 receptors were 55.3% and 95.6%, respectively. For the same compound, at human CB2 receptors, the “displacement of [3H]CP-55,940 in the competitive radioligand screen” value is “more than 60%”. Further, at human CB2 receptors (CB2, full competition curves vs [3H]CP-55,940), affinity was put at a Ki of 137 nM.

Values taken from paper PMC8778670, “Identification of an Orally Bioavailable, Brain-Penetrant Compound with Selectivity for the Cannabinoid Type 2 Receptor” (Molecules, 2022).
